Assay results published in article PMC8809408 (Frontiers in Pharmacology, 2022).
“Also recorded” adds a separate entry of the source. Read-outs that look alike come from different tables or passages of the source.

Experiments:
Sigma-1 receptor (S1R) = conditions: cited from earlier work
[1] = system: HEK293T-ACE2-TMPRSS2 cells
in vitro = conditions: human
Zaire Ebola virus (EBOV) = conditions: cited from earlier work
COVID-19 [2] = conditions: COVID-19 patients, treatment for 20 days ref Hoertel, et al., 2021b; cited from earlier work
SARS-CoV-2 (B.1) = assay type: cell-based
ACE2 [3] = assay type: cell-based, human
TMPRSS2 [4] = assay type: cell-based, human
COVID-19 [5] = conditions: follow up randomized controlled trial ref Reis et al., 2021; cited from earlier work
S2R = conditions: ref Robson et al., 2012; cited from earlier work
TMPRSS2 [6] = assay type: cell-based, human; remark: listed apart in the source
[7] = system: SARS-CoV-2 B.1.351 (beta); assay type: cell-based
[8] = system: SARS-CoV-2 B.1.1.7 (alpha); assay type: cell-based
ACE2 [9] = assay type: cell-based, human; remark: listed apart in the source
[10] = system: SARS-CoV-2 B.1.617.2 (delta); assay type: cell-based
[11] = samples collected from pilot fatalities ref Johnson et al., 2007; cited from earlier work
[12] = ref Narita et al., 1996, Sukhatme et al., 2021

SMILES: Fc1ccc([C@@H]2CCNC[C@H]2COc2ccc3c(c2)OCO3)cc1 [Paroxetine]
- binding to S1R (Sigma-1 receptor (S1R); [12]): bind to S1R
- cell viability (ATP level) in non-infected and infected cells [1]: Reduction
- CC50 (in vitro): 22.1 µM
- Zaire Ebola virus (EBOV) entry to target cells (Zaire Ebola virus (EBOV)): reduce the Zaire Ebola virus (EBOV) entry

SMILES: CN(C)CCC[C@@]1(c2ccc(F)cc2)OCc2cc(C#N)ccc21 [escitalopram]
- risk of intubation or death by COVID-19 (COVID-19 [2]): reduce the risk of intubation or death

SMILES: CN(C)CCCN1c2ccccc2CCc2ccccc21 [Imipramine]
- binding to S1R (Sigma-1 receptor (S1R); [12]): bind to S1R
- genome copies of SARS-CoV-2 (qRT-PCR) (SARS-CoV-2 (B.1)): reducing the genome copies
- infectious virus particles (TCID50 assay) (SARS-CoV-2 (B.1)): failed to effect the TCID50
- cell viability (ATP level) [1]: reduced ATP levels
- cell viability (ATP level) in non-infected and infected cells [1]: Reduction
- viability of infected Calu-1 cells (ATP level) (Calu-1 cells): All compounds, except for imipramine, decreased the cell viability
- CC50 (in vitro): 68.6 µM

SMILES: O=c1[nH]c2ccccc2n1C1CCN(CCCC(c2ccc(F)cc2)c2ccc(F)cc2)CC1 [Pimozide]
- cell viability (ATP level) in non-infected and infected cells [1]: Reduction
- CC50 (in vitro): 15 µM

SMILES: CN(C)CCCN1c2ccccc2Sc2ccc(Cl)cc21 [Chlorpromazine]
- amount of infectious virus (TCID50 assay) (SARS-CoV-2 (B.1)): failed to observe diminished amount of infectious virus
- total amount of virus / genome copy number (qRT-PCR) (SARS-CoV-2 (B.1)): able to reduce the total amount of virus
- cell viability (ATP level) in non-infected and infected cells [1]: Reduction
- ACE2 mRNA level (ACE2 [3]): induced a reduction of this target
- TMPRSS2 mRNA level (TMPRSS2 [4]): remained ineffective
- viability of infected Calu-1 cells (ATP level) (Calu-1 cells): slight but significant reduction in the viability
- CC50 (in vitro): 15.9 µM

SMILES: CN(C)CCCC1(c2ccc(F)cc2)OCc2cc(C#N)ccc21 (stereo not shown) [Citalopram]
- binding to S1R (Sigma-1 receptor (S1R); [12]): bind to S1R
- genome copies of SARS-CoV-2 (qRT-PCR) (SARS-CoV-2 (B.1)): clearly reduced
- infectious virus particles (TCID50 assay) (SARS-CoV-2 (B.1)): clearly reduced
- cell viability (ATP level) in non-infected and infected cells [1]: Reduction
- viability of infected Calu-1 cells (ATP level) (Calu-1 cells): decreased the cell viability
- CC50 (in vitro): 274 µM

SMILES: CNCCCN1c2ccccc2CCc2ccccc21 [Desipramine]
- binding to S1R (Sigma-1 receptor (S1R); [12]): bind to S1R
- cell viability (ATP level) in non-infected and infected cells [1]: Reduction
- CC50 (in vitro): 68.9 µM

SMILES: COCCCC/C(=N\OCCN)c1ccc(C(F)(F)F)cc1 [Fluvoxamine]
- binding to S1R (Sigma-1 receptor (S1R); [12]): bind to S1R
- cell viability (ATP level) in non-infected and infected cells [1]: Reduction
- hospitalization risk due to COVID-19 (COVID-19 [5]): helps with the reduction of hospitalization risk
- CC50 (in vitro): 75.3 µM

SMILES: CNC1(c2ccccc2Cl)CCCCC1=O (stereo not shown) [Ketamine]
- binding to S1R (Sigma-1 receptor (S1R); ref Robson et al., 2012): can bind to both S1R and S2R
- binding to S2R (S2R): can bind to both S1R and S2R

SMILES: CCOc1ccccc1OC(c1ccccc1)C1CNCCO1 (stereo not shown) [Reboxetine]
- genome copies of SARS-CoV-2 (qRT-PCR) (SARS-CoV-2 (B.1)): clearly reduced
- infectious virus particles (TCID50 assay) (SARS-CoV-2 (B.1)): clearly reduced

SMILES: OCCN1CCN(CCC=C2c3ccccc3Sc3ccc(C(F)(F)F)cc32)CC1 [Flupenthixol]
- cell viability (ATP level) in non-infected and infected cells [1]: Reduction
- CC50 (in vitro): 19.4 µM

SMILES: CNCCC(Oc1ccc(C(F)(F)F)cc1)c1ccccc1 (stereo not shown) [Fluoxetine]
- TMPRSS2 protein level (TMPRSS2 [6]): significantly increased; also recorded: Despite not being statistically significant, fluoxetine also increased TMPRSS2
- binding to S1R (Sigma-1 receptor (S1R); [12]): bind to S1R
- TCID50 (infectious virus) [7]: reduced
- genome copy number (qRT-PCR) [7]: reduced
- genome copies of SARS-CoV-2 (qRT-PCR) (SARS-CoV-2 (B.1)): clearly reduced
- infectious virus particles (TCID50 assay) (SARS-CoV-2 (B.1)): clearly reduced
- TCID50 (infectious virus) [8]: reduced
- genome copy number (qRT-PCR) [8]: reduced
- cell viability (ATP level) in non-infected and infected cells [1]: Reduction
- risk of intubation or death by COVID-19 (COVID-19 [2]): reduce the risk of intubation or death
- ACE2 protein level (ACE2 [9]): does not exert any effect on the ACE2 expression
- ACE2 mRNA level (ACE2 [3]): remained unaltered
- TMPRSS2 mRNA level (TMPRSS2 [4]): increased
- viability of infected Calu-1 cells (ATP level) (Calu-1 cells): decreased the cell viability
- Calu-1 viability (ATP levels) (Calu-1 cells; human): slightly reduced the Calu-1 viability
- CC50 (in vitro): 41.5 µM
- TCID50 (infectious virus) [10]: reduced
- genome copy number (qRT-PCR) [10]: reduced
- mean concentration of fluoxetine in lungs [11]: 19.6 µg/g

SMILES: CN(C)CCCN1c2ccccc2CCc2ccc(Cl)cc21 [Clomipramine]
- genome copies of SARS-CoV-2 (qRT-PCR) (SARS-CoV-2 (B.1)): clearly reduced
- infectious virus particles (TCID50 assay) (SARS-CoV-2 (B.1)): clearly reduced
- cell viability (ATP level) in non-infected and infected cells [1]: Reduction
- ACE2 mRNA level (ACE2 [3]): induced a reduction of this target
- TMPRSS2 mRNA level (TMPRSS2 [4]): remained ineffective
- viability of infected Calu-1 cells (ATP level) (Calu-1 cells): decreased the cell viability
- CC50 (in vitro): 65.7 µM
- Zaire Ebola virus (EBOV) entry to target cells (Zaire Ebola virus (EBOV)): reduce the Zaire Ebola virus (EBOV) entry

SMILES: CN[C@H]1CC[C@@H](c2ccc(Cl)c(Cl)c2)c2ccccc21 [sertraline]
- binding to S1R (Sigma-1 receptor (S1R); [12]): bind to S1R
- Zaire Ebola virus (EBOV) entry to target cells (Zaire Ebola virus (EBOV)): reduce the Zaire Ebola virus (EBOV) entry

SMILES: COc1ccc(C(CN(C)C)C2(O)CCCCC2)cc1 (stereo not shown) [Venlafaxine]
- affinity to S1R (Sigma-1 receptor (S1R); ref Ishima et al., 2014): very weak affinity
- genome copies of SARS-CoV-2 (qRT-PCR) (SARS-CoV-2 (B.1)): ineffective
- infectious virus particles (TCID50 assay) (SARS-CoV-2 (B.1)): ineffective
- CC50 [1]: No fitting
- cell viability (ATP level) [1]: all the compounds, except (E) venlafaxine and (F) reboxetine reduced ATP levels
- risk of intubation or death by COVID-19 (COVID-19 [2]): reduce the risk of intubation or death
- viability of infected Calu-1 cells (ATP level) (Calu-1 cells): decreased the cell viability
